Tests used:
Format in all cases: cell-based, human
neocartilage [1] = experiment: Cytokine-induced resorption of neocartilage (matrix content, gross and histological appearance); conditions: day 28 tissue stimulated for additional 36 days
neocartilage [2] = experiment: as above
Method: It is seen that chronic IL-1 stimulation alters cartilage staining for proteoglycan and collagen. • Day 60 neocartilages were treated with 1 ng/ml rhIL-1β for 30 days. Fresh media and cytokine were added every 48 hours. • Neocartilages were harvested (day 90) and stained with safranin-O and pentachrome as before. […] Magnification×100.
Neocartilage cultures were established in 24 or 48 well plastic dishes (Corning) as described above (Example 1) and grown to day 30. The hyaline cartilage matrix was then stimulated to undergo autolytic degradation following 30 day activation with increasing concentrations of a variety of cytokine and/or inflammatory agents, including IL-1, Il-6, IL-17, TNF-α, LPS, and phorbol ester. Culture media were collected every 48 hours and subsequently changed by the addition of fresh media±inflammatory stimuli.
Cultures were terminated and the biochemical composition of the neocartilage matrix that remained was analyzed as described previously. Parallel samples were processed for light and transmission electron microscopy for histological evaluation of extracellular matrix components.

Fetal chondrocytes = experiment: Effect of heparin on neocartilage formation; conditions: day 10–28
Method: Day 10 neocartilage was treated with increasing amounts of heparin for 18 days. Fresh media, containing heparin and ascorbate were added every 72–96 hrs. Media were collected and frozen for future analysis. Cultures were harvested on day 28 and the S-GAG content (FIG. 18A) and OH-proline content (FIG. 18B) of the resultant neocartilage assayed as described hereinbelow.
Fetal chondrocytes were grown as described above and subdivided into three groups on day 10 to investigate the effect of heparin on neocartilage formation. In low doses, heparin is known to increase the activity of certain growth factors, for example the fibroblast growth factor (FGF) family of related proteins, by acting as a co-factor, whereas greater amounts of heparin will strip away certain growth factors from the extracellular matrix and thereby impede tissue repair.
Sterile heparin was added to the media at a final concentration of […] for the duration of the culture period (i.e. from day 10–28). Media were exchanged every 3–4 days and recovered for electrophoretic analysis of secreted proteins. Cell layers were removed and the S-GAG (FIG. 18A), hydroxy proline (FIG. 18B), and DNA content quantitated as before (FIG. 18).

[3] = system: matrix metalloproteinases (MMPs); experiment: Zymogram and Western analysis of chondrocyte-derived metalloproteinases in spent media; conditions: substrate gels
Method: FIG. 10, in two parts, FIGS. 10A and 10B, represent SDS-substrate gel (zymogram) analysis of cytokine-mediated production of matrix metalloproteinases (MMPs) in fetal articular chondrocytes (neocartilage disks). Negative staining indicates the molecular weight (MW) in kDa of the active proteases. • Spent media were collected 72 h post stimulation with the indicated cytokine (5 ng/ml) and concentrated 16-fold by dialysis/lyophilization. • Unreduced samples were separated on 10% SDS substrate gels containing either gelatin (FIG. 10A) or casein (FIG. 10B) 0.1%. • MMPs were renatured following SDS removal by extensive washing in 2.5% Triton X-100 and lytic bands visualized via negative staining with Coomassie blue, following incubation in a calcium and zinc containing buffer for 4 hr at 37° C. • Latent enzyme activity is shown in lanes 1–4, while the corresponding active enzymes were prepared by preincubation with 1 mM 4-aminophenyl mercuric acetate (APMA lanes 5–8).
Conditioned media were thawed and identification of chondrocyte-derived metalloproteinases assessed by zymogen substrate gel electrophoresis, as well as Western analysis following SDS-PAGE. Further studies examined the effect of activating agents on synthesis of S-GAG and collagen via radiolabeled incorporation.

[4] = cytokine 1.0 (ng/ml), chronic treatment
[5] = cytokine 5.0 (ng/ml), chronic treatment

Question: What does the source list for TNF-α?
Answer: gross appearance of neocartilage on removal from plastic surface (neocartilage [1]): retracted considerably upon removal from the plastic surface; OH-proline content of tissue (neocartilage [2]; [4]): 403 pmol; OH-proline content of tissue (neocartilage [2]; [5]): 355 pmol

Question: With “IL-1β: cytokine used to stimulate resorption of neocartilage” as the molecule, how does the “gross appearance of neocartilage on removal from plastic surface” value (neocartilage [1]) read?
Answer: retracted considerably upon removal from the plastic surface

Question: What about the “OH-proline content of tissue” value (neocartilage [2]; cytokine 0.1 ng/ml, chronic treatment) of the same molecule?
Answer: 572 ± 105 pmol

Question: What about the “OH-proline content of tissue” value (neocartilage [2]; [4]) of the same molecule?
Answer: 541 ± 16 pmol

Question: What about the “OH-proline content of tissue” value (neocartilage [2]; [5]) of the same molecule?
Answer: 501 ± 48 pmol

Question: What about the “OH-proline content of tissue” value (neocartilage [2]; cytokine + 50 mU plasminogen, cytokine concentration not printed on the line) of the same molecule?
Answer: 460 ± 16 pmol

Question: What about the “thickness of the synthesized matrix” value (neocartilage [2]; day 60 neocartilage, 1 ng/ml for 30 days) of the same molecule?
Answer: significant reduction in the thickness of the synthesized matrix

Question: What about the “safranin-O and pentachrome staining intensity” value (neocartilage [2]; day 60 neocartilage, 1 ng/ml for 30 days, versus untreated controls) of the same molecule?
Answer: Staining intensity is markedly reduced

Question: What does the source list for heparin?
Answer: defect in matrix deposition (Fetal chondrocytes; 2 μg/ml): much less severe; inhibition in OH-proline (matrix deposition) (Fetal chondrocytes; highest concentration of heparin (20 μg)): 33%

Question: Which metalloproteinase synthesis induced [3] does the source give for `CCCCCCCCCCCCCC(=O)O[C@@H]1[C@@H](C)[C@@]2(O)[C@@H](C=C(CO)C[C@]3(O)C(=O)C(C)=C[C@@H]23)[C@@H]2C(C)(C)[C@]12OC(C)=O` [Phorbol ester] here?
Answer: specifically induced synthesis of gelatinase B

B1: plasminogen: added to enhance the activation of latent MMPs via the plasminogen activator/plasmin cascade (protein, UniProt P00747 20-810, looked up)
Plasminogen: EPLDDYVNTQGASLFSVTKKQLGAGSIEECAAKCEEDEEFTCRAFQYHSKEQQCVIMAENRKSSIIIRMRDVVLFEKKVYLSECKTGNGKNYRGTMSKTKNGITCQKWSSTSPHRPRFSPATHPSEGLEENYCRNPDNDPQGPWCYTTDPEKRYDYCDILECEEECMHCSGENYDGKISKTMSGLECQAWDSQSPHAHGYIPSKFPNKNLKKNYCRNPDRELRPWCFTTDPNKRWELCDIPRCTTPPPSSGPTYQCLKGTGENYRGNVAVTVSGHTCQHWSAQTPHTHNRTPENFPCKNLDENYCRNPDGKRAPWCHTTNSQVRWEYCKIPSCDSSPVSTEQLAPTAPPELTPVVQDCYHGDGQSYRGTSSTTTTGKKCQSWSSMTPHRHQKTPENYPNAGLTMNYCRNPDADKGPWCFTTDPSVRWEYCNLKKCSGTEASVVAPPPVVLLPDVETPSEEDCMFGNGKGYRGKRATTVTGTPCQDWAAQEPHRHSIFTPETNPRAGLEKNYCRNPDGDVGGPWCYTTNPRKLYDYCDVPQCAAPSFDCGKPQVEPKKCPGRVVGGCVAHPHSWPWQVSLRTRFGMHFCGGTLISPEWVLTAAHCLEKSPRPSSYKVILGAHQEVNLEPHVQEIEVSRLFLEPTRKDIALLKLSSPAVITDKVIPACLPSPNYVVADRTECFITGWGETQGTFGAGLLKEAQLPVIENKVCNRYEFLNGRVQSTELCAGHLAGGTDSCQGDSGGPLVCFEKDKYILQGVTSWGLGCARPNKPGVYVRVSRFVTWIEGVMRNN
Question: Which “OH-proline content of tissue” value (neocartilage [2]; 50 mU plasminogen alone, no cytokine, chronic treatment) does the source give for B1 here?
Answer: 1648 ± 72 pmol
